In patent US10941137B2, “Difluoromethyl-phenyl triazoles” (Boehringer Ingelheim International GmbH, priority 2018, dated 2021):

These compounds were tested against T1, human GABAA α5β3γ2s receptor (Homo sapiens, UniProt P18507+P31644) (assay: Assay A: in vitro inhibition of 3H-flumazenil binding, HEK cells expressing human GABAA α5β3γ2s receptor). Conditions: 3H-flumazenil 1 nM, HEK-293 membranes, 40 min at 2° C.; Ki from IC50 by Cheng and Prusoff.
T1 sequence (P18507 1-475): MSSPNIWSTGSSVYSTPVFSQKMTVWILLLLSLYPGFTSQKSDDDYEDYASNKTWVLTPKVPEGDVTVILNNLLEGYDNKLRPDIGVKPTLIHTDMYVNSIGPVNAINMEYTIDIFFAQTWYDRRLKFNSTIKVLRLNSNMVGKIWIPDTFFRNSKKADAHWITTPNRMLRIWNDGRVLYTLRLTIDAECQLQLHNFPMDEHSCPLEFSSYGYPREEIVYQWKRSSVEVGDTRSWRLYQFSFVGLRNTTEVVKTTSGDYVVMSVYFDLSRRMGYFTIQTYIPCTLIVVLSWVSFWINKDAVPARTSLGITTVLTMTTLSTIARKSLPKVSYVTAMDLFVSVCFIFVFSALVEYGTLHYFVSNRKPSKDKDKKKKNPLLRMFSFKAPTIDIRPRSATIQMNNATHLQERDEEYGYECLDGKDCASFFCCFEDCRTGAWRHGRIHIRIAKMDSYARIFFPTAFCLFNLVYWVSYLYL
T1 sequence (P31644 1-462): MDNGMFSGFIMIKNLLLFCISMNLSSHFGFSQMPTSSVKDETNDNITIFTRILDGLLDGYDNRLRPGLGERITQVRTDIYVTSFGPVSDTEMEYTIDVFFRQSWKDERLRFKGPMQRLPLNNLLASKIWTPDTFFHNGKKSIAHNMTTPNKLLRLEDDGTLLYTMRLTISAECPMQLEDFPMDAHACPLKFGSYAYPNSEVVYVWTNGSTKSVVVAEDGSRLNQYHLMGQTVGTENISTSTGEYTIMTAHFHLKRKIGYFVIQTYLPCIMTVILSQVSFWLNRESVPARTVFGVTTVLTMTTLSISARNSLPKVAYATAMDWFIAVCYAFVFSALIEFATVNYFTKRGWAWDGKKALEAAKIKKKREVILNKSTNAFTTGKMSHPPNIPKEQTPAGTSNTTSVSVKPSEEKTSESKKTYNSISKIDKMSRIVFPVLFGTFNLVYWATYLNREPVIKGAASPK
Protocol: HEK-293 cell lines with stable expression of recombinant human GABAA α5β3γ2s receptors (plasmid H46/E9/B10) are seeded in T175 polystyrene flasks or roller bottles (1700 cm^2, Fisher Scientific CCI-431191), and cultured (37 C, 5% CO˜) in Dulbecco's Modified Eagle Medium (DMEM) with GlutaMAX™ supplemented with 10% fetal bovine serum and one or both of the following antibiotics: hygromycin B ([…]; γ2 subunit) or G418 (0.5 mg/ml; […]).
When the cultures reach confluency, the DMEM is removed and the cells are washed (10 ml for T175 flasks; 50 ml for roller bottles) once in Dulbecco's Phosphate Buffered Saline (DPBS). Following addition of DPBS to the cultures (10 ml for T175 flasks; 100 ml for roller bottles) for approximately 5 min cells are easily detached from the surface by shaking or tapping the flask gently. The cell suspension is transferred to Falcon tubes and centrifuged at 23,500×g for 10 min at 2° C. The pellet is washed once in 15 ml Tris-citrate buffer (50 mM, pH 7.1) using an Ultra-Turrax homogenizer and centrifuged at 2° C. for 10 min at 27,000×g. The washed pellet is re-suspended in 15 ml Tris-citrate buffer and frozen at −80° C. until the day of the binding experiment.
On the day of the experiment the cell membrane preparation is thawed and centrifuged at 2° C. for 10 min at 27,000×g. The pellet is re-suspended, using an Ultra-Turrax homogenizer in Tris-citrate buffer, to 15-50 µg protein per assay and then used for binding assays.
Non-specific binding is determined using clonazepam (1 μM, final concentration).
All dilutions of test compounds and incubation of assay are performed in glass vials/96-vial plates. […] Compounds are dissolved in 100% DMSO (10 mM stock), diluted in 48% ethanol-water, and tested in triplicate in serial 1:3 or 1:10 dilutions. When screening large numbers of compounds only one concentration of each compound is tested in single wells. Reference compounds are not included routinely, but for each experiment performed total and nonspecific binding is compared to data obtained during validation of the assay.
Binding is either terminated by rapid filtration onto
1) Whatman GF/C glass fibre filters using a Brandel Cell harvester, followed by 5 washes with 1 ml ice-cold buffer or onto 2) UniFilter GF/C glass fibre filter plates using a Tomtec cell harvester, followed by washing with approximately 5 ml ice-cold buffer.
The amount of radioactivity on the filters is determined by conventional liquid scintillation counting using a
1) Tri-Garb™ counter (PerkinElmer Life and Analytical Sciences) for separate large filters or
2) Topcount™ counter (PerkinElmer Life and Analytical Sciences) for 96-well filter plates. Specific binding is total binding minus non-specific binding.
For screening purposes n is set to 1. The IC50 value is calculated from the concentration response curves by the non-linear regression method using the curve-fitting program GraphPad Prism. […]

With `Cc1nnn(-c2ccc(C(F)F)cc2)c1COc1ccc(-c2cncnc2)nn1` [Example 22] as the compound, how does the Ki read?
Its Ki is 0.11 nM.

`Cc1nnn(-c2ccc(C(F)F)cc2)c1COc1ccc(-n2cnc(C[N+](C)(C)C)c2)nn1.O=C([O-])C(F)(F)F` [Example 36, ({1-[6-({1-[4-(difluoromethyl)phenyl]-4-methyl-1H-1,2,3-triazol-5-yl}methoxy)pyridazin-3-yl]-1H-imidazol-4-yl}methyl)trimethylazanium trifluoroacetate] was tested. Which Ki did it give?
Its Ki is 0.12 nM.

`Cc1nnn(-c2ccc(C(F)F)cc2)c1COc1ccc(-n2cnc(C(=O)O)c2)nn1` [Example 37, 1-[6-({1-[4-(difluoromethyl)phenyl]-4-methyl-1H-1,2,3-triazol-5-yl}methoxy)pyridazin-3-yl]-1H-imidazole-4-carboxylic acid] was tested. Which Ki did it give?
Its Ki is 0.81 nM.

How did the Ki turn out when `CNC(=O)c1cn(-c2ccc(OCc3c(C)nnn3-c3ccc(C(F)F)cc3)nn2)cn1` [Example 14] was run?
The Ki was 0.071 nM.

For `Cc1nnn(-c2ccc(C(F)F)cc2)c1COc1ccc(-n2cnc(CN)c2)nn1` [Example 35, {1-[6-({1-[4-(difluoromethyl)phenyl]-4-methyl-1H-1,2,3-triazol-5-yl}methoxy)pyridazin-3-yl]-1H-imidazol-4-yl}methanamine], which Ki is on record?
The Ki was 0.057 nM.

Which Ki does the source give for `CCn1cc(-c2ccc(OCc3c(C)nnn3-c3ccc(C(F)F)cc3)nn2)cn1` [Example 7] here?
Its Ki is 0.032 nM.

With `Cc1cc(-c2ccc(OCc3c(C)nnn3-c3ccc(C(F)F)cc3)nn2)cnn1` [Example 11] as the compound, how does the Ki read?
The Ki was 0.058 nM.

Which Ki does the source give for `Cc1nnn(-c2ccc(C(F)F)cc2)c1COc1ccc(-n2ccc(C(F)(F)F)n2)nn1` [Example 24] here?
The Ki was 0.25 nM.

For `Cc1nnn(-c2ccc(C(F)F)cc2)c1COc1ccc(-n2cc(C(F)(F)F)cn2)nn1` [Example 25], which Ki is on record?
Its Ki is 0.35 nM.

With `Cc1nnn(-c2ccc(C(F)F)cc2)c1COc1ccc(-n2cnc(S(C)(=O)=O)c2)nn1` [Example 19] as the compound, how does the Ki read?
Its Ki is 0.38 nM.

For `Cc1nnn(-c2ccc(C(F)F)cc2)c1COc1ccc(-n2cnc(Cl)c2)nn1` [Example 18], which Ki is on record?
The Ki was 0.056 nM.

`Cc1ncn(-c2ccc(OCc3c(C)nnn3-c3ccc(C(F)F)cc3)nn2)n1` [Example 33] was tested. Which Ki did it give?
Its Ki is 0.163 nM.

With `Cc1nnn(-c2ccc(C(F)F)cc2)c1COc1ccc(-c2cnn(C)c2)nn1` [Example 5] as the compound, how does the Ki read?
The Ki was 0.11 nM.

`Cc1nnn(-c2ccc(C(F)F)cc2)c1COc1ccc(-n2cnc(C(C)O)c2)nn1` (centres unmarked) [Example 40] was tested. Which Ki did it give?
The Ki was 0.16 nM.

How did the Ki turn out when `Cc1nnn(-c2ccc(C(F)F)cc2)c1COc1ccc(-n2cnc(C(N)=O)c2)nn1` [Example 27, 1-[6-({1-[4-(difluoromethyl)phenyl]-4-methyl-1H-1,2,3-triazol-5-yl}methoxy)pyridazin-3-yl]-1H-imidazole-4-carboxamide] was run?
The Ki was 0.036 nM.

`Cc1n[nH]c(C)c1-c1ccc(OCc2c(C)nnn2-c2ccc(C(F)F)cc2)nn1` [Example 12, 3-({1-[4-(difluoromethyl)phenyl]-4-methyl-1H-1,2,3-triazol-5-yl}methoxy)-6-(3,5-dimethyl-1H-pyrazol-4-yl)pyridazine] was tested. Which Ki did it give?
The Ki was 0.9 nM.

With `Cc1nnn(-c2ccc(C(F)F)cc2)c1COc1ccc(-c2cncc(-n3ccnc3)c2)nn1` [Example 8] as the compound, how does the Ki read?
Its Ki is 0.055 nM.

Which Ki does the source give for `CC(=O)c1cn(-c2ccc(OCc3c(C)nnn3-c3ccc(C(F)F)cc3)nn2)cn1` [Example 32] here?
The Ki was 0.039 nM.

`Cc1nnn(-c2ccc(C(F)F)cc2)c1COc1ccc(-n2cc3c(n2)CCNC3=O)nn1` [Example 26] was tested. Which Ki did it give?
The Ki was 0.12 nM.

How did the Ki turn out when `Cc1ncc(-c2ccc(OCc3c(C)nnn3-c3ccc(C(F)F)cc3)nn2)o1` [Example 6] was run?
The Ki was 0.11 nM.

With `Cc1nnn(-c2ccc(C(F)F)cc2)c1COc1ccc(-n2cnc(C=O)c2)nn1` [Example 17] as the compound, how does the Ki read?
Its Ki is 0.089 nM.

`Cc1nnn(-c2ccc(C(F)F)cc2)c1COc1ccc(-n2ccc(C(N)=O)n2)nn1` [Example 21] was tested. Which Ki did it give?
The Ki was 0.047 nM.

Which Ki does the source give for `Cc1nnn(-c2ccc(C(F)F)cc2)c1COc1ccc(-n2cnc(C(F)F)c2)nn1` [Example 15] here?
The Ki was 0.11 nM.

`Cc1nnn(-c2ccc(C(F)F)cc2)c1COc1ccc(-n2ccc(C#N)n2)nn1` [Example 20] was tested. Which Ki did it give?
The Ki was 0.009 nM.

For `Cc1nnn(-c2ccc(C(F)F)cc2)c1COc1ccc(-n2cnc(CO)c2)nn1` [Example 38, {1-[6-({1-[4-(difluoromethyl)phenyl]-4-methyl-1H-1,2,3-triazol-5-yl}methoxy)pyridazin-3-yl]-1H-imidazol-4-yl}methanol], which Ki is on record?
Its Ki is 0.2 nM.

Which Ki does the source give for `Cc1nnn(-c2ccc(C(F)F)cc2)c1COc1ccc(-n2cnc(C(C)(C)O)c2)nn1` [Example 39, 2-{1-[6-({1-[4-(difluoromethyl)phenyl]-4-methyl-1H-1,2,3-triazol-5-yl}methoxy)pyridazin-3-yl]-1H-imidazol-4-yl}propan-2-ol] here?
The Ki was 0.14 nM.

`Cc1nnn(-c2ccc(C(F)F)cc2)c1COc1ccc(-c2cnc(OCC(C)(C)O)nc2)nn1` [Example 4] was tested. Which Ki did it give?
Its Ki is 0.87 nM.

For `Cc1nnn(-c2ccc(C(F)F)cc2)c1COc1ccc(-c2ccnc(O)c2)nn1` [Example 2, 4-[6-({1-[4-(difluoromethyl)phenyl]-4-methyl-1H-1,2,3-triazol-5-yl}methoxy)pyridazin-3-yl]pyridin-2-ol], which Ki is on record?
The Ki was 0.086 nM.

How did the Ki turn out when `Cc1nnn(-c2ccc(C(F)F)cc2)c1COc1ccc(-n2cc(C#N)cn2)nn1` [Example 31] was run?
The Ki was 0.21 nM.

`Cc1nnn(-c2ccc(C(F)F)cc2)c1COc1ccc(-c2cnn(C3CC3)c2)nn1` [Example 9] was tested. Which Ki did it give?
The Ki was 0.25 nM.

`COC(=O)c1cn(-c2ccc(OCc3c(C)nnn3-c3ccc(C(F)F)cc3)nn2)cn1` [Example 29] was tested. Which Ki did it give?
Its Ki is 0.063 nM.

With `COc1ncc(-c2ccc(OCc3c(C)nnn3-c3ccc(C(F)F)cc3)nn2)cn1` [Example 3] as the compound, how does the Ki read?
The Ki was 0.16 nM.
